PubChem BioAssay (NCI)
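Where inhibition never reached the appropriate level, the endpoint shown equals the highest concentration tested. Otherwise, values were interpolated linearly from a five-concentration, 48-hour dose response in 96-well plates. TGI: concentration producing complete growth inhibition.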

Experiments:
Assay in all cases: inhibition of tumour cell growth, NCI panel, 48 h
HS 578T breast = system: HS 578T breast
OVCAR-3 ovarian = system: OVCAR-3 ovarian
MDA-MB-435 = system: MDA-MB-435
U251 CNS = system: U251 CNS
SF-268 CNS = system: SF-268 CNS
NCI-H23 lung = system: NCI-H23 lung
KM12 colon = system: KM12 colon
HL-60(TB) leukemia = system: HL-60(TB) leukemia
T-47D breast = system: T-47D breast
NCI/ADR-RES ovarian = system: NCI/ADR-RES ovarian
IGROV1 ovarian = system: IGROV1 ovarian
SK-MEL-2 melanoma = system: SK-MEL-2 melanoma
M14 melanoma = system: M14 melanoma
UO-31 renal = system: UO-31 renal
MDA-MB-231 breast = system: MDA-MB-231 breast
NCI-H460 lung = system: NCI-H460 lung
PC-3 prostate = system: PC-3 prostate
SNB-75 CNS = system: SNB-75 CNS
OVCAR-8 ovarian = system: OVCAR-8 ovarian
ACHN renal = system: ACHN renal
RPMI-8226 leukemia = system: RPMI-8226 leukemia
A549 NSCLC = system: A549 NSCLC
LOX IMVI melanoma = system: LOX IMVI melanoma
MALME-3M melanoma = system: MALME-3M melanoma
BT-549 breast = system: BT-549 breast
MDA-N = system: MDA-N
HCT-15 colon = system: HCT-15 colon
CAKI-1 renal = system: CAKI-1 renal
A498 renal = system: A498 renal
SR leukemia = system: SR leukemia
HOP-62 NSCLC = system: HOP-62 NSCLC
HT29 colon = system: HT29 colon
MCF7 breast = system: MCF7 breast
NCI-H522 lung = system: NCI-H522 lung
SK-OV-3 ovarian = system: SK-OV-3 ovarian
SK-MEL-5 melanoma = system: SK-MEL-5 melanoma
SF-539 CNS = system: SF-539 CNS
SNB-19 CNS = system: SNB-19 CNS
SW-620 colon = system: SW-620 colon
UACC-62 melanoma = system: UACC-62 melanoma
CCRF-CEM leukemia = system: CCRF-CEM leukemia
SF-295 CNS = system: SF-295 CNS
K-562 leukemia = system: K-562 leukemia
COLO 205 colon = system: COLO 205 colon
SK-MEL-28 melanoma = system: SK-MEL-28 melanoma
TK-10 renal = system: TK-10 renal
OVCAR-4 ovarian = system: OVCAR-4 ovarian
HOP-92 NSCLC = system: HOP-92 NSCLC
UACC-257 melanoma = system: UACC-257 melanoma
DU-145 prostate = system: DU-145 prostate
OVCAR-5 ovarian = system: OVCAR-5 ovarian
MOLT-4 leukemia = system: MOLT-4 leukemia
SN12C renal = system: SN12C renal
HCC-2998 colon = system: HCC-2998 colon
786-0 renal = system: 786-0 renal
EKVX NSCLC = system: EKVX NSCLC
HCT-116 colon = system: HCT-116 colon
NCI-H226 lung = system: NCI-H226 lung

O=C(Cc1nc2cccnc2nc1/C=C(\O)c1ccccc1)c1ccccc1
TGI (HS 578T breast): > 100 µM | TGI (OVCAR-3 ovarian): 13.3 µM | TGI (MDA-MB-435): 82 µM | TGI (U251 CNS): > 100 µM | TGI (SF-268 CNS): 46 µM | TGI (NCI-H23 lung): > 100 µM | TGI (KM12 colon): > 100 µM | TGI (HL-60(TB) leukemia): 66.6 µM | TGI (T-47D breast): > 100 µM | TGI (NCI/ADR-RES ovarian): > 100 µM | TGI (IGROV1 ovarian): > 100 µM | TGI (SK-MEL-2 melanoma): 65.4 µM | TGI (M14 melanoma): > 100 µM | TGI (UO-31 renal): 79.6 µM | TGI (MDA-MB-231 breast): > 100 µM | TGI (NCI-H460 lung): 22.7 µM | TGI (PC-3 prostate): > 100 µM | TGI (SNB-75 CNS): 96.4 µM | TGI (OVCAR-8 ovarian): > 100 µM | TGI (ACHN renal): > 100 µM | TGI (RPMI-8226 leukemia): 29 µM | TGI (A549 NSCLC): > 100 µM | TGI (LOX IMVI melanoma): 87 µM | TGI (MALME-3M melanoma): > 100 µM | TGI (BT-549 breast): 38.4 µM | TGI (MDA-N): > 100 µM | TGI (HCT-15 colon): > 100 µM | TGI (CAKI-1 renal): 30.5 µM | TGI (A498 renal): 74 µM | TGI (SR leukemia): > 100 µM | TGI (HOP-62 NSCLC): 58.4 µM | TGI (HT29 colon): > 100 µM | TGI (MCF7 breast): 27.6 µM | TGI (NCI-H522 lung): 35.6 µM | TGI (SK-OV-3 ovarian): > 100 µM | TGI (SK-MEL-5 melanoma): 38 µM | TGI (SF-539 CNS): > 100 µM | TGI (SNB-19 CNS): > 100 µM | TGI (SW-620 colon): > 100 µM | TGI (UACC-62 melanoma): 18.6 µM | TGI (CCRF-CEM leukemia): 29.9 µM | TGI (SF-295 CNS): 82.1 µM | TGI (K-562 leukemia): > 100 µM | TGI (COLO 205 colon): 25.1 µM | TGI (SK-MEL-28 melanoma): > 100 µM | TGI (TK-10 renal): > 100 µM | TGI (OVCAR-4 ovarian): > 100 µM | TGI (HOP-92 NSCLC): 59 µM | TGI (UACC-257 melanoma): > 100 µM | TGI (DU-145 prostate): > 100 µM | TGI (OVCAR-5 ovarian): > 100 µM | TGI (MOLT-4 leukemia): > 100 µM | TGI (SN12C renal): 59.1 µM

COC(O)C(=O)c1c2c(cc3c1CCC3)CCCC2 (stereo not given)
TGI (HS 578T breast): 36.2 µM | TGI (OVCAR-3 ovarian): 14.5 µM | TGI (MDA-MB-435): 36.7 µM | TGI (U251 CNS): 27.8 µM | TGI (SF-268 CNS): 45.5 µM | TGI (NCI-H23 lung): 31.7 µM | TGI (KM12 colon): 34.1 µM | TGI (HL-60(TB) leukemia): 4.31 µM | TGI (T-47D breast): 44.2 µM | TGI (NCI/ADR-RES ovarian): 61.5 µM | TGI (IGROV1 ovarian): 14 µM | TGI (SK-MEL-2 melanoma): 30.2 µM | TGI (M14 melanoma): 24.9 µM | TGI (UO-31 renal): 31.5 µM | TGI (MDA-MB-231 breast): 27.6 µM | TGI (NCI-H460 lung): 19.7 µM | TGI (PC-3 prostate): 11 µM | TGI (SNB-75 CNS): 26 µM | TGI (OVCAR-8 ovarian): 25.4 µM | TGI (HCC-2998 colon): 4.28 µM | TGI (786-0 renal): 27.8 µM | TGI (ACHN renal): 21 µM | TGI (EKVX NSCLC): 31.1 µM | TGI (RPMI-8226 leukemia): 5.63 µM | TGI (A549 NSCLC): 40.9 µM | TGI (LOX IMVI melanoma): 4.95 µM | TGI (MALME-3M melanoma): 27.8 µM | TGI (HCT-116 colon): 4.6 µM | TGI (BT-549 breast): 6.41 µM | TGI (MDA-N): 30.4 µM | TGI (HCT-15 colon): 13.8 µM | TGI (CAKI-1 renal): 28.3 µM | TGI (A498 renal): 18 µM | TGI (SR leukemia): 13.9 µM | TGI (HOP-62 NSCLC): 33.3 µM | TGI (HT29 colon): 12.9 µM | TGI (NCI-H226 lung): 38 µM | TGI (MCF7 breast): 18 µM | TGI (NCI-H522 lung): 13.2 µM | TGI (SK-OV-3 ovarian): 24.6 µM | TGI (SK-MEL-5 melanoma): 9.47 µM | TGI (SF-539 CNS): 16.6 µM | TGI (SNB-19 CNS): 32.8 µM | TGI (SW-620 colon): 12.3 µM | TGI (UACC-62 melanoma): 12.3 µM | TGI (CCRF-CEM leukemia): 6.69 µM | TGI (SF-295 CNS): 26 µM | TGI (K-562 leukemia): 12.7 µM | TGI (COLO 205 colon): 19.3 µM | TGI (SK-MEL-28 melanoma): 26.4 µM | TGI (TK-10 renal): 29.9 µM | TGI (OVCAR-4 ovarian): 17.5 µM | TGI (UACC-257 melanoma): 25.9 µM | TGI (DU-145 prostate): 30.5 µM | TGI (OVCAR-5 ovarian): 36.7 µM | TGI (MOLT-4 leukemia): 14.2 µM | TGI (SN12C renal): 19.5 µM
